For 29 compounds, pKa results are on record in ChEMBL document CHEMBL1156953, “Novel pyrrolyl 2-aminopyridines as potent and selective human beta-secretase (BACE1) inhibitors” (Bioorg Med Chem Lett, 2010).

A short description of the series: Dissociation constant, pKa of the compound. It counts as physicochemical.

As for `N#CCCCOc1ccc(-c2ccc(-c3ccccc3Cl)n2Cc2cccc(N)n2)cc1`, the pKa came to 6.86. Compound `CCCCCOc1ccc(-c2ccc(-c3ccccc3Cl)n2Cc2ccc(NCCO)c(N)n2)cc1` gave a pKa of 6.86. As to `CCCCCOc1ccc(-c2ccc(-c3ccccc3Cl)n2Cc2ccc(NCCCO)c(N)n2)cc1`, the pKa was found to be 6.86.

`CCCOc1ccc(-c2ccc(-c3ccccc3Cl)n2Cc2cccc(N)n2)cc1` yielded a pKa of 6.86. With `CCCCOc1ccc(-c2ccc(-c3ccccc3Cl)n2Cc2cccc(N)n2)cc1`, the pKa came out at 6.86. `CCNC(=O)c1ccc(-c2ccc(-c3ccccc3)n2Cc2cccc(N)n2)cc1`: the pKa stood at 6.86. `CCCNC(=O)c1ccc(-c2ccc(-c3ccccc3)n2Cc2cccc(N)n2)cc1` gave a pKa of 6.86. On to `CCCCNC(=O)c1ccc(-c2ccc(-c3ccccc3)n2Cc2cccc(N)n2)cc1`, for which the pKa was determined as 6.86. The figure for `Nc1nc(Cn2c(-c3ccc(Oc4cncnc4)cc3)ccc2-c2ccccc2Cl)ccc1OCCO` is 6.86; for `Nc1nc(Cn2c(-c3ccc(Oc4cncnc4)cc3)ccc2-c2ccccc2Cl)ccc1NCCO` it is 6.86. Regarding `Nc1cccc(Cn2c(-c3ccc(Oc4ccncc4)cc3)ccc2-c2ccccc2Cl)n1`, the pKa came to 6.86. As to `Nc1cccc(Cn2c(-c3ccc(Oc4cccnc4)cc3)ccc2-c2ccccc2Cl)n1`, the pKa was found to be 6.86. Then `Nc1cccc(Cn2c(-c3ccc(Oc4ccccc4)cc3)ccc2-c2ccccc2Cl)n1`, with 6.86. Then `Nc1cccc(Cn2c(-c3ccc(Oc4ccccn4)cc3)ccc2-c2ccccc2Cl)n1`, with 6.86. As to `Nc1cccc(Cn2c(-c3ccc(Oc4cncnc4)cc3)ccc2-c2ccccc2Cl)n1`, the pKa came to 6.86. Then `Nc1cccc(Cn2c(-c3ccc(Oc4cnccn4)cc3)ccc2-c2ccccc2Cl)n1`, with 6.86. Then `CCCCCCOc1ccc(-c2ccc(-c3ccccc3Cl)n2Cc2cccc(N)n2)cc1`, with 6.86; and `C=CCNC(=O)c1ccc(-c2ccc(-c3ccccc3)n2Cc2cccc(N)n2)cc1`, with 6.86; and `CC(C)NC(=O)c1ccc(-c2ccc(-c3ccccc3)n2Cc2cccc(N)n2)cc1`, with 6.86. The figure for `Nc1cccc(Cn2c(-c3ccccc3)ccc2-c2ccccc2)n1` is 6.86.

`Nc1cccc(Cn2c(-c3ccc(Oc4cccnn4)cc3)ccc2-c2ccccc2Cl)n1` returned a pKa of 6.86.

In the case of `Nc1cccc(Cn2c(-c3ccc(Oc4cccs4)cc3)ccc2-c2ccccc2Cl)n1`, the pKa was found to be 6.86. `Nc1cccc(Cn2c(-c3ccccc3)ccc2-c2ccc(C(=O)NC3CC3)cc2)n1` yielded a pKa of 6.86.

`Nc1cccc(Cn2c(-c3ccccc3)ccc2-c2ccc(C(=O)NC3CCC3)cc2)n1`: the pKa turned out to be 6.86. In the case of `COc1ccc(-c2ccc(-c3ccccc3Cl)n2Cc2cccc(N)n2)cc1`, the pKa stood at 6.86.

In turn, `CCCCCOc1ccc(-c2ccc(-c3ccccc3Cl)n2Cc2cccc(N)n2)cc1` came in with a pKa of 6.86. Then `Nc1cccc(Cn2c(-c3ccc(Nc4cncnc4)cc3)ccc2-c2ccccc2Cl)n1`, with 6.86; and `CCCCCOc1ccc(-c2ccc(-c3ccccc3Cl)n2Cc2ccc(OCCO)c(N)n2)cc1`, with 6.86; and `CCCCCOc1ccc(-c2ccc(-c3ccccc3Cl)n2Cc2ccc(OCCCO)c(N)n2)cc1`, with 6.86.
